Test results as given in ChEMBL document CHEMBL5303304, “EUbOPEN Chemogenomics Library - IncuCyte” (2023).

Experiments:
Type in all cases: toxicity, cell-based
HEK-293T = assay: Incucyte cell viability with HEK293T; settings: human, 10 µM, compound concentration 10 uM
U2OS = assay: Incucyte cell viability with U2OS; settings: human, 10 µM, compound concentration 10 uM
Fibroblast = assay: Incucyte cell viability with human fibroblast; settings: 10 µM, compound concentration 10 uM
Also: unitless GR value; below 1 slowed growth and below 0 cell loss.

Compound | Growth Rate (HEK-293T; 6 h, replicate number 1) | Growth Rate (HEK-293T; 12 h, replicate number 1) | Growth Rate (HEK-293T; 24 h, replicate number 1) | Growth Rate (U2OS; 0 h, replicate number 2) | Growth Rate (U2OS; 6 h, replicate number 2) | Growth Rate (U2OS; 24 h, replicate number 1) | Growth Rate (Fibroblast; 0 h, replicate number 2) | Growth Rate (Fibroblast; 6 h, replicate number 1) | Growth Rate (Fibroblast; 24 h, replicate number 1) | Growth Rate (HEK-293T; 0 h, replicate number 1) | Growth Rate (HEK-293T; 0 h, replicate number 2) | Growth Rate (U2OS; 0 h, replicate number 1) | Growth Rate (U2OS; 18 h, replicate number 1) | Growth Rate (U2OS; 18 h, replicate number 2) | Growth Rate (Fibroblast; 12 h, replicate number 2) | Growth Rate (Fibroblast; 18 h, replicate number 1) | Growth Rate (Fibroblast; 18 h, replicate number 2) | Growth Rate (U2OS; 12 h, replicate number 2) | Growth Rate (U2OS; 24 h, replicate number 2) | Growth Rate (HEK-293T; 24 h, replicate number 2) | also measured
CC(=O)c1c(C)c2cnc(Nc3ccc(N4CCN(CCCCNC(=O)COc5cccc6c5C(=O)N(C5CCC(=O)NC5=O)C6=O)CC4)cn3)nc2n(C2CCCC2)c1=O (centres undefined) | 0.75 | 0.82 | 0.91 | 0.65 | 0.97 | 1 | 0.14 | 0.72 | 0.88 |  |  |  |  |  |  |  |  |  |  |  | Growth Rate (HEK-293T; 12 h, replicate number 2): 0.85; Growth Rate (HEK-293T; 18 h, replicate number 1): 0.85; Growth Rate (HEK-293T; 18 h, replicate number 2): 0.98; Growth Rate (U2OS; 12 h, replicate number 1): 0.99
Cl.c1ccc2c(c1)CCC[C@H]2Nc1nc2ccccc2[nH]1 | 0.77 |  |  |  | 0.97 | 0.98 | 0.4 |  | 0.48 | 0.86 | 0.46 | 0.01 | 0.9 | 0.95 | 0.56 | 0.44 | 0.87 |  |  |  | Growth Rate (Fibroblast; 0 h, replicate number 1): 0.94
CN1Cc2nccc(-c3cn(C)nc3-c3ccc(F)cc3)c2C1=O.Cl |  |  |  | 0.96 |  |  | 0.28 |  |  | -0.38 | 0.69 | 0.53 | 0.99 |  |  |  |  |  |  |  | 
COCCCS(=O)(=O)c1cc(C)c(-c2ccc(F)c3c2CC[C@H]3Oc2ccc3c(c2)OC[C@H]3CC(=O)O)c(C)c1 | 0.78 | 0.83 | 0.81 | -1 | 0.65 |  | 0.7 | 1 |  |  | -0.02 |  | 0.79 | 0.88 |  |  |  | 0.95 | 0.9 |  | Growth Rate (HEK-293T; 18 h, replicate number 1): 0.82; Growth Rate (U2OS; 6 h, replicate number 1): 0.63
COc1ccc(S(=O)(=O)N2CCOCC2)cc1Nc1ccc2c(n1)N(C1CCN(C)CC1)[C@H](C)C(=O)N2C |  |  | 0.66 | 0.58 |  | 0.45 | 0.55 | 0.47 | 0.86 |  |  |  | 0.83 | 0.79 | 0.26 | 0.88 | 0.48 | 0.86 | 0.72 | 0.62 | Growth Rate (HEK-293T; 18 h, replicate number 1): 0.97; Growth Rate (Fibroblast; 6 h, replicate number 2): -0.45; Growth Rate (Fibroblast; 12 h, replicate number 1): 0.73; Growth Rate (Fibroblast; 24 h, replicate number 2): 0.41
C[C@@H]1OCC2(CCN(c3cnc(Sc4ccnc(N)c4Cl)c(N)n3)CC2)[C@@H]1N [BATOPROTAFIB] |  |  |  |  | 0.99 | 0.69 | 0.47 |  |  | 0.52 | -0.24 | 0.89 | 0.78 | 0.91 | 0.8 |  |  | 0.78 | 0.99 |  | Growth Rate (U2OS; 6 h, replicate number 1): 0.3; Growth Rate (U2OS; 12 h, replicate number 1): 0.53; Growth Rate (Fibroblast; 0 h, replicate number 1): -1; Growth Rate (Fibroblast; 6 h, replicate number 2): -0.69
CNC(=O)COc1cc2cc(Nc3nc(N4C[C@H](C)C[C@H](C)C4)ncc3Cl)ccc2n(C)c1=O |  |  |  | 0.58 |  | 0.95 | -0.82 | 0.72 | 0.99 | 0.06 | 0.7 |  | 0.92 |  |  | 0.7 |  | 0.85 |  |  | Growth Rate (U2OS; 6 h, replicate number 1): 0.85; Growth Rate (Fibroblast; 12 h, replicate number 1): 0.96
Cl.N/C(=N\C(=O)c1nc(Cl)c(N)nc1N)NCc1ccccc1 [BENZAMIL HYDROCHLORIDE] | 0.83 |  |  |  |  |  |  | -0.25 |  |  |  | 0.13 | 1 |  | 0.56 |  | 0.68 | 0.99 | 0.94 |  | Growth Rate (HEK-293T; 6 h, replicate number 2): 0.79; Growth Rate (HEK-293T; 12 h, replicate number 2): 1; Growth Rate (Fibroblast; 0 h, replicate number 1): 0.69; Growth Rate (Fibroblast; 6 h, replicate number 2): -0.19; Growth Rate (Fibroblast; 24 h, replicate number 2): 0.74
Cc1[nH]nc2ccc(-c3cncc(OCC(N)Cc4ccccc4)c3)cc12 (centres undefined) |  |  | 0.9 |  |  | 0.35 | -0.26 | -1 |  | -0.76 | -0.85 |  |  | 0.7 |  |  |  |  | 0.28 | 0.21 | Growth Rate (HEK-293T; 18 h, replicate number 2): 0.44; Growth Rate (Fibroblast; 24 h, replicate number 2): 0.73
O=C(O)C[C@H]1CCn2c1c(Sc1ccc(Cl)cc1)c1ccc(F)cc12 | 0.76 | 0.96 | 0.92 |  |  | 0.94 |  |  | 0.89 | 0.01 | -0.28 |  |  |  | 0.4 |  | 0.97 |  |  | 0.78 | Growth Rate (HEK-293T; 12 h, replicate number 2): 0.99; Growth Rate (HEK-293T; 18 h, replicate number 2): 0.93; Growth Rate (Fibroblast; 0 h, replicate number 1): -1; Growth Rate (Fibroblast; 6 h, replicate number 2): 0.42; Growth Rate (Fibroblast; 24 h, replicate number 2): 0.83
CNC1(C)C2CCC(C2)C1(C)C.Cl (centres undefined) [MECAMYLAMINE HYDROCHLORIDE] | 0.95 | 0.74 |  | -0.76 | 0.24 | 0.98 | 0.92 | 0.44 |  |  |  | 0.92 | 0.93 | 0.64 | 0.66 | 0.43 |  | 0.97 | 0.73 | 0.91 | Growth Rate (HEK-293T; 6 h, replicate number 2): 0.89; Growth Rate (HEK-293T; 12 h, replicate number 2): 0.84; Growth Rate (HEK-293T; 18 h, replicate number 2): 0.89; Growth Rate (U2OS; 6 h, replicate number 1): 1; Growth Rate (Fibroblast; 0 h, replicate number 1): 0.75; Growth Rate (Fibroblast; 12 h, replicate number 1): -1
N[C@@H](Cn1cc(F)c(=O)[nH]c1=O)C(=O)O | 0.82 | 0.99 |  |  | 0.7 |  |  |  | 0.97 | 0.81 |  | 0.45 |  | 0.8 |  | 0.16 | 0.82 | 0.81 | 0.83 | 0.96 | Growth Rate (HEK-293T; 6 h, replicate number 2): 0.86; Growth Rate (Fibroblast; 12 h, replicate number 1): -0.98; Growth Rate (Fibroblast; 24 h, replicate number 2): 0.99
Fc1ccc(-c2nc(-c3ccc4ccccc4c3F)[nH]c2-c2ccncc2)cc1 | 0.81 | 0.77 | 0.67 |  |  |  |  | 0.58 | 0.76 |  |  | -1 |  |  | 0.65 | 0.61 | 0.8 |  | 0.94 | 0.47 | Growth Rate (HEK-293T; 6 h, replicate number 2): 0.42; Growth Rate (HEK-293T; 12 h, replicate number 2): 0.57; Growth Rate (HEK-293T; 18 h, replicate number 1): 0.7; Growth Rate (HEK-293T; 18 h, replicate number 2): 0.41; Growth Rate (Fibroblast; 6 h, replicate number 2): -0.01; Growth Rate (Fibroblast; 12 h, replicate number 1): 0.47
